Legend:
Format in all cases: cell-based
IL-1β = assay: LPS-induced human whole blood, IL-1β release; conditions: for inhibition at 0.00137174 µM: 1.371742 nM; for inhibition at 0.00411523 µM: 4.115226 nM; for inhibition at 0.0123457 µM: 12.34568 nM; for inhibition at 0.037037 µM: 37.03704 nM; for inhibition at 0.111111 µM: 111.1111 nM; for inhibition at 0.333333 µM: 333.3333 nM; for inhibition at 1 µM: 1000 nM
Experimental: (§1) Venous blood from human donors was collected as 10 ml aliquots in tubes containing sodium heparin (BD Vacutainer from Becton Dickinson and Company, Franklin Lakes, N.Y.). Blood was added to sterile polystyrene round bottom 96-well tissue culture plates (Corning Costar) at 180 Blood was placed in a humidified 37 C incubator with 5% CO2 while compounds were prepared (nearly 60 minutes).
(§2) Compounds were prepared from 10 mM stock solutions in dimethylsulfoxide (DMSO, Sigma-Aldrich). Stock compound was diluted in DMSO to give appropriate starting concentration then diluted serially 1/3 in DMSO (i.e. 15 μl compound+30 μl DMSO), followed by diluting each serial dilution 1/167 into vehicle solution (2% DMSO in phosphate buffered saline (Dulbecco's Phosphate Buffered Saline without calcium chloride without magnesium chloride, Invitrogen Corporation, Carlsbad Calif.)). Compound or vehicle was added to blood in 10 μl aliquots as triplicates, omitting the outside wells to minimize possible edge effects. The final highest concentration of each compound in the assay ranged from 3 to 0.3 μM. Final DMSO concentration in the assay was 0.1%. The plate containing the samples was gently vortexed to mix and replaced in the incubator. LPS stock (E. coli serotype 0111:B4, Sigma-Aldrich), stored in aliquots of 100 μg/ml in RPMI at −20° C., was diluted […] in RPMI to make a working stock solution. After 60 minutes of incubation, 10 μl of the prepared LPS working stock was added to the blood to a final concentration of 100 ng/ml. Wells to be used as negative control received RPMI media with no LPS. The plate was again gently vortexed and the plates incubated overnight for 22 hours. Following incubation, the blood was centrifuged at 1500×g for 5 minutes and the plasma removed to either freeze at −20° C. or assay for cytokine release.
(§3) IL-1β, IFNγ and TNFα protein levels were measured using Meso Scale assay kits (Meso Scale Discovery, Gaithersburg, Md., U.S.A.). Reagents were allowed to come to room temperature. Meso Scale plates were blocked with 150 μl of Meso Scale Block B diluent, gently shaking at room temperature for 60 minutes. Plates were washed 3× with wash buffer (PBS, Invitrogen Corporation, with 0.05% Tween-20, Sigma-Aldrich). Calibrators for standard curves were prepared in human plasma/serum assay diluent as a 1/5 serial dilution to achieve final concentrations ranging from 50000 pg/ml to 3.2 pg/ml. Samples were added at 10 to 20 μl/well and calibrators were added at 20 μl/well then incubated at room temperature with gentle shaking for 2 hours. Plates were again washed 3× with wash buffer. Detection antibody was diluted in human plasma/serum antibody diluent to 1 μg/ml and added to the plate at 20 μl/well. Plates were incubated as before for 2 hours and washed again. Read Buffer T (4×) was diluted 1:1 with mqH20 to 2× concentration and 150 μl added to each well. Plates were read on the SECTOR Imager 6000 (Meso Scale Discovery) to generate raw signal values.
(§4) Individual sample signal values were compared to positive and negative controls (vehicle treated blood with LPS and vehicle treated blood without LPS, respectively) to generate % inhibition. Triplicate values were averaged for each donor. The values for three or four donors were averaged and graphed using 4-parameter fit curves in the LabStats plug-in for the Microsoft Excel application.

IFNγ = assay: LPS-induced human whole blood, IFNγ release; conditions: for inhibition at 0.00137174 µM: 1.371742 nM; for inhibition at 0.00411523 µM: 4.115226 nM; for inhibition at 0.0123457 µM: 12.34568 nM; for inhibition at 0.037037 µM: 37.03704 nM; for inhibition at 0.111111 µM: 111.1111 nM; for inhibition at 0.333333 µM: 333.3333 nM; for inhibition at 1 µM: 1000 nM; for IFNγ (% inhibition) / inhibition at 3 µM: 3000 nM; for IFNγ (% inhibition): 3 µM
Experimental: as §1, §2, §3, §4

TNFα = assay: LPS-induced human whole blood, TNFα release; conditions: for inhibition at 0.00137174 µM: 1.371742 nM; for inhibition at 0.00411523 µM: 4.115226 nM; for inhibition at 0.0123457 µM: 12.34568 nM; for inhibition at 0.037037 µM: 37.03704 nM; for inhibition at 0.111111 µM: 111.1111 nM; for inhibition at 0.333333 µM: 333.3333 nM; for inhibition at 1 µM: 1000 nM
Experimental: as §1, §2, §3, §4

[1] = Homo sapiens, 0.457247 nM, mean of donors
[2] = ex vivo LPS-stimulated human whole blood, extent of inhibition, concentration not given
[3] = Homo sapiens, 3000 nM, mean of donors

Compound | inhibition at 0.00137174 µM (IL-1β; Homo sapiens, mean of donors) | inhibition at 0.00411523 µM (IL-1β; Homo sapiens, mean of donors) | inhibition at 0.0123457 µM (IL-1β; Homo sapiens, mean of donors) | inhibition at 0.037037 µM (IL-1β; Homo sapiens, mean of donors) | inhibition at 0.111111 µM (IL-1β; Homo sapiens, mean of donors) | inhibition at 0.333333 µM (IL-1β; Homo sapiens, mean of donors) | inhibition at 1 µM (IL-1β; Homo sapiens, mean of donors) | inhibition at 0.00137174 µM (IFNγ; Homo sapiens, mean of donors) | inhibition at 0.00411523 µM (IFNγ; Homo sapiens, mean of donors) | inhibition at 0.0123457 µM (IFNγ; Homo sapiens, mean of donors) | inhibition at 0.037037 µM (IFNγ; Homo sapiens, mean of donors) | inhibition at 0.111111 µM (IFNγ; Homo sapiens, mean of donors) | inhibition at 0.333333 µM (IFNγ; Homo sapiens, mean of donors) | inhibition at 1 µM (IFNγ; Homo sapiens, mean of donors) | inhibition at 0.00137174 µM (TNFα; Homo sapiens, mean of donors) | inhibition at 0.00411523 µM (TNFα; Homo sapiens, mean of donors) | inhibition at 0.0123457 µM (TNFα; Homo sapiens, mean of donors) | inhibition at 0.037037 µM (TNFα; Homo sapiens, mean of donors) | inhibition at 0.111111 µM (TNFα; Homo sapiens, mean of donors) | inhibition at 0.333333 µM (TNFα; Homo sapiens, mean of donors) | other results
C[C@]12C=CC(=O)C=C1CC[C@@H]1[C@@H]2[C@@H](O)C[C@@]2(C)[C@H]1CC[C@]2(O)C(=O)CO [Prednisolone] | -1.26% | 0.84% | 7.17% | 36.7% | 61.9% | 87.6% | 91.8% | 9.75% | 25.2% | 34.7% | 70.7% | 85.2% | 94.8% | 96.4% | 6.36% | 8.95% | 19.6% | 49.2% | 67.1% | 86.9% | inhibition at 0.000457247 µM (IL-1β; [1]): -0.571%; level of inhibition of IL-1 (IL-1β; [2]): full inhibition; inhibition at 0.000457247 µM (IFNγ; [1]): 1.19%; level of inhibition of IFN (IFNγ; [2]): full inhibition; inhibition at 0.000457247 µM (TNFα; [1]): 2.76%; inhibition at 1 µM (TNFα; Homo sapiens, mean of donors): 90.4%; level of inhibition of TNF (TNFα; [2]): full inhibition
Oc1ccc2c(c1)CC[C@@H]1C[C@@](O)(c3ccccc3)[C@@H](O)C[C@@]21Cc1ccccc1 [Comparator F, (2R,3S,4aR,10aR)-4a-Benzyl-2-phenyl-1,2,3,4,4a,9,10,10a-octahydrophenanthrene-2,3,7-triol] | -4.16% | -6.16% | -5.49% | -6.15% | -4.59% | -2.45% | 0.22% | -12.4% | -15.3% | -8.35% | -13.4% | -4.6% | -3.3% | 14.6% | -2.51% | -8.12% | -6.79% | -4.23% | -6.35% | -3.43% | IFNγ (% inhibition) (IFNγ; mean of donors): 21.96%; inhibition at 3 µM (IFNγ; Homo sapiens, mean of donors): 22%; inhibition at 1 µM (TNFα; Homo sapiens, mean of donors): 4.14%
Cc1ncccc1COc1ccc2c(c1)CC[C@@H]1C[C@@](O)(c3ccccc3)[C@@H](O)C[C@@]21Cc1ccccc1 [Comparator G, (2R,3S,4aR,10aR)-4a-Benzyl-7(2-methyulpyridin-3-ylmethoxy)-2-phenyl-1,2,3,4,4a,9,10,10a-octahydrophenanthrene-2,3 diol] | -0.115% | -2.64% | -7.52% | -7.35% | -5.37% | -6.75% | -1.19% | 16.7% | 12.8% | -9.15% | -2.58% | 2.66% | 2.02% | 13.2% | 3.22% | -2.9% | -14% | -13.9% | -8.76% | -13.8% | inhibition at 3 µM (IL-1β; [3]): < 20%; IFNγ (% inhibition) (IFNγ; mean of donors): 41.3796%; inhibition at 3 µM (IFNγ; Homo sapiens, mean of donors): 41%; inhibition at 1 µM (TNFα; Homo sapiens, mean of donors): -8.47%; inhibition at 3 µM (TNFα; [3]): < 20%
